Measurements taken from patent US4673676A, “Pyrimidoisoquinoline derivatives useful for treating allergies” (Fujisawa Pharmaceutical Co., Ltd., priority 1983, dated 1987).

System: PCA (Passive Cutaneous Anaphylaxis) reaction
Experiment: Inhibitory effect on PCA (Passive Cutaneous Anaphylaxis) reaction
Type: in vivo, male SD (Spraque-Dawley) strain rats
Conditions: rat, 1 mg/kg intravenously, 5 minutes before the challenge with antigen; percent inhibition of dye spot size vs control
Protocol: A solution of egg albumin (2 mg) in B. pertussisdiphtheria-tetanus mixed vaccine (1 ml) was mixed with Freund incomplete adjuvant (1 ml) to give an emulsion. The emulsion was given subcutaneously in a single dose of 1 ml divided equally (0.25 ml) to the four foot pads of male SD (Spraque-Dawley) strain rats aged 8 weeks, each weighing about 300 g.
8 days after the immunization, blood samples were collected from femoral artery of the rats and allowed to stand under ice-cooling for 5 hours. The separated supernatant was centrifuged at 4° C. (10,000 r.p.m.×1 hour). The antisera thus obtained were stored at -80° C. prior to use.
Male SD-strain rats aged 8 weeks, weighing 250 to 300 g, were used for PCA reaction with the homologous reaginic antiserum as prepared above. Each 0.1 ml of 32 fold diluted antiserum were injected intradermally at separate sites on the back of rats clipped free of hair, and 48 hours later, 1 ml of aqueous solution containing each 5 mg of the egg albumin and Evans blue was injected intravenously to evoke PCA reaction. Test compound was given to the animals intravenously 5 minutes before the challenge with antigen. Control group received vehicle. Each dose group consisted of 4 animals. […] The results were expressed by percent inhibition values calculated from averaged values of the longest and shortest diameters for each spot in comparison with those in control group. […]

## N-(1H-tetrazol-5-yl)-10-(2,3-dimethylpentanoylamino)-7-methyl-4-oxo-4H-pyrimido[2,1-a]isoquinoline-3-carboxamide [Example 11]
  Inhibitory effect: 100%
